Measurements reported in ChEMBL document CHEMBL4433266, “Design, synthesis and antimycobacterial activity of benzoxazinone derivatives and open-ring analogues: Preliminary data and computational analysis” (Bioorg Med Chem Lett, 2019).
In brackets after ≈: the same amount, converted by molar mass.

How the values were obtained:
Format in all cases: functional
[1] = tested on: Mycobacterium tuberculosis; assay: Antimycobacterial activity against Streptomycin-resistant Mycobacterium tuberculosis ATCC 35820 assessed as inhibition of bacterial cell growth incubated for 7 days by resazurin microtiter assay; conditions: ATCC 35820, 168 h
[2] = tested on: Mycobacterium tuberculosis; assay: Antimycobacterial activity against Pyrazinamide-resistant Mycobacterium tuberculosis ATCC 35828 assessed as inhibition of bacterial cell growth incubated for 7 days by resazurin microtiter assay; conditions: ATCC 35828, 168 h
[3] = tested on: Mycobacterium tuberculosis; assay: Antimycobacterial activity against Rifampicin-resistant Mycobacterium tuberculosis ATCC 35838 assessed as inhibition of bacterial cell growth incubated for 7 days by resazurin microtiter assay; conditions: ATCC 35838, 168 h
[4] = tested on: Mycobacterium tuberculosis; assay: Antimycobacterial activity against Isoniazid-resistant Mycobacterium tuberculosis ATCC 35822 assessed as inhibition of bacterial cell growth incubated for 7 days by resazurin microtiter assay; conditions: ATCC 35822, 168 h

Row | SMILES | MIC [1] | MIC [2] | MIC [3] | MIC [4]
1 | COC(=O)/C=C1\Nc2ccc(Cl)cc2OC1=O | 3.9 µM (≈ 0.989 µg/mL) | 3.9 µM (≈ 0.989 µg/mL) | 3.9 µM (≈ 0.989 µg/mL) | > 126 µM
2 | O=C(NNC(=O)c1ccncc1)C(=O)Nc1ccc(Cl)cc1O | 24 µM (≈ 8.03 µg/mL) | 12 µM (≈ 4.02 µg/mL) | 12 µM (≈ 4.02 µg/mL) | > 96 µM
3 | O=C1Oc2ccccc2N/C1=C\C(=O)c1cccs1 | 14.7 µM (≈ 3.99 µg/mL) | 14.7 µM (≈ 3.99 µg/mL) | 14.7 µM (≈ 3.99 µg/mL) | 118 µM (≈ 32 µg/mL)
4 | O=C(NNC(=O)c1ccncc1)C(=O)Nc1cc(Cl)ccc1O | 24 µM (≈ 8.03 µg/mL) | 12 µM (≈ 4.02 µg/mL) | 12 µM (≈ 4.02 µg/mL) | > 96 µM
5 | NNC(=O)c1ccncc1 [ISONIAZID] | 1.8 µM (≈ 0.247 µg/mL) | 1.8 µM (≈ 0.247 µg/mL) | 1.8 µM (≈ 0.247 µg/mL) | > 233 µM
6 | O=C1Oc2ccccc2N/C1=C\C(=O)N1CCOCC1 | 7.3 µM (≈ 2 µg/mL) | 3.6 µM (≈ 0.987 µg/mL) | 7.3 µM (≈ 2 µg/mL) | > 117 µM
7 | COC(=O)/C=C1\Nc2cc(Cl)ccc2OC1=O | 63 µM (≈ 16 µg/mL) | 31 µM (≈ 7.86 µg/mL) | 63 µM (≈ 16 µg/mL) | > 126 µM
8 | O=C(NNC(=O)c1ccncc1)C(=O)Nc1ccccc1O | 26.7 µM (≈ 8.02 µg/mL) | 6.7 µM (≈ 2.01 µg/mL) | 3.3 µM (≈ 0.991 µg/mL) | > 106 µM
9 | O=C1Oc2ccccc2N/C1=C\C(=O)c1c[nH]c2ccccc12 | 3.3 µM (≈ 1 µg/mL) | 3.3 µM (≈ 1 µg/mL) | 3.3 µM (≈ 1 µg/mL) | > 105 µM
10 | COC(=O)/C=C1\Nc2ccccc2OC1=O | 4.5 µM (≈ 0.986 µg/mL) | 4.5 µM (≈ 0.986 µg/mL) | 9.1 µM (≈ 1.99 µg/mL) | > 146 µM
